Like-named read-outs stand apart in the source and are kept apart here.
Legend:
[1] = system: Hek 293 (human embryonic kidneys); assay: Cell viability, MTT test, normal cell line; assay type: cell-based; conditions: read-out: IC50 (concentration causing 50% inhibition of cell population growth)
Method: In this work, the cytotoxic potential of the water-soluble salts based on benzofuroxan was determined by the effect of compounds on the survival of the cell tumor origin cultures (SH-SY5Y, Hep2, A549, HeLa) using the MTT test. To understand how the synthesized compounds can influence the healthy microenvironment in the body, the effect of substances on the viability of a normal Hek 293 cell culture was additionally evaluated.
Human cell cultures of tumor origin—SH-SY5Y (neuroblastoma), HeLa (cervical tumor), Hep-2 (larynx carcinoma), A549 (adenocarcinomic human alveolar basal epithelial cells)—and normal cell line Hek 293 (human embryonic kidneys), provided by the Laboratory of Tumor Cell Genetics of the Scientific Research Institute of Carcinogenesis, N.N. Blokhin National Medical Research Center of Oncology, as well as the Institute of Cytology of the Russian Academy of Sciences, were grown in a nutrient medium DMEM (PanEco, Moscow, Russia) and MEM (PanEco, Moscow, Russia), containing fetal bovine serum (10% by volume) (ThermoFisher Scientific, Paisley, UK), Glutamax (2 mM) (Gibco, Scotland, UK), and penicillin-streptomycin (1% by volume) (PanEco, Moscow, Russia). The cultivation was carried out at 37 °C in a humidified CO2 atmosphere (5%).
Cell viability was determined by MTT test. Cells were seeded in a 96-well plate in the amount of 1 × 10^4 cells/200µLof complete nutrient medium and cultured at 37 °C in CO2 (5%). After 24 h of incubation, various concentrations of test compounds in the range from 0.1 to 100 μM, were added to the cell cultures, and then the cells were cultured under the same conditions for 24 and 72 h. For each concentration, the experiment was carried out in triplicate.
All compounds were dissolved in DMSO, then diluted with the medium to the required concentration. […] The DMSO was also added to the control wells in a volume of 1%. After the incubation time, MTT (3-(4,5-dimethylthiazol-2-yl)-2,5-diphenyltetrazolium bromide, 5 mg/mL) was added to each well and plates were additionally incubated for 2 h (until the characteristic color appeared).
Using a plate analyzer (Cytation3, BioTech Instruments Inc., Winooski, VT, USA), the optical density was determined at 530 nm. The concentration value causing 50% inhibition of cell population growth (IC50) was determined from dose-dependent curves.

[2] = system: murine leukemia P388 in BDF1 mice; assay: Antitumor activity in vivo, transplanted murine leukemia P388
Method: The study of the antitumor activity of compounds 4e and 4g was carried out using transplanted experimental murine tumor leukemia P388. In the experiment, concentrations from 1.25 to 10 mg/kg were used for 4e, and from 0.625 to 5 mg/kg for 4g. The concentrations used correspond to values from 1/8 MPD to MPD for the studied compounds.
Studies of antitumor activity were carried out on hybrid male mice BDF1 [DBA2×C57Bl6] weighing from 22 to 24 g. In the experiment, clinically healthy animals were used, which were kept in the same conditions with a 12-h light and free access to water and food. Each experimental group included six animals. Transplantation of mouse leukemia P388 was performed intraperitoneally with a concentration of 10^6 cells in 200μLof 0.9% NaCl solution per animal. Compounds 4e and 4g were dissolved in 0.9% NaCl solution and administered intraperitoneally once in the dose range 1.25–10 mg/kg and 0.625–5 mg/kg, respectively. The compounds were administered the next day after tumor cell transplantation. Control animals received 0.9% NaCl solution. The effectiveness of therapy was assessed by the increase in the average life span (ILS, %) of the animals.

BDF1 mice = assay: Acute toxicity, single intraperitoneal administration; assay type: in vivo
Method: (§1) To determine LD50, a curve of increasing toxicity was built with increasing dose, based on which the following parameters were additionally determined: MTD, LD16, LD84 and LD100.
(§2) In the experiment, clinically healthy animals were used, which were kept in the same conditions with a 12-h light and free access to water and food. Each experimental group included six animals. […] Control animals received 0.9% NaCl solution. Animals were monitored continuously for 4 h on the first day after administration of the test compounds. […] Calculation of toxic doses was performed using probit analysis.

[3] = as above; assay type: in vivo; conditions: male, BDF1 [DBA2 × C57Bl6] hybrid, mouse, in vivo, ip, BDF1 mice, single intraperitoneal administration
Method: as §1, §2

rice seeds = assay: Pre-sowing seed treatment, sowing qualities of rice seeds; assay type: in vivo; conditions: for germination energy: control 71.4; for laboratory germination: control 95.2
Method: (§3) When evaluating the effectiveness of treatment of wheat, alfalfa, barley, rice, and sorghum seeds as fungicidal and bactericidal agents with preparation compounds at concentrations of 10, 20, and 40 mmol, their effect on the suppression of seed infection was evaluated.
(§4) […] The sowing qualities were evaluated (germination energy for 3–4 days, laboratory germination for 7–8 days) according to GOST 12038-84 [60]. Sowing qualities of seeds were determined in wet chambers. According to the sample, 50 seeds were taken in 4-fold repetition.

barley seeds = assay: Pre-sowing seed treatment, sowing qualities of barley seeds; assay type: in vivo; conditions: for germination energy / laboratory germination: control 95.2
Method: as §3, §4

[4] = single intraperitoneal administration, doses given in mg/kg, probit analysis

CN(C)CCCNc1c([N+](=O)[O-])c(Cl)cc2c1no[n+]2[O-].Cl [4g, 6-chloro-4-(3-(dimethylammonio)propylamino)-5-nitrobenzo[c][1,2,5]oxadiazole 1-oxide chloride]
IC50 ([1]; HEK293, 24 h): 21.9 ± 0.39 µM
IC50 ([1]; HEK293, 72 h): 12 ± 1.12 µM
increase in the average lifespan (ILS) ([2]; single i.p. injection, 5 mg/kg): 25%
lifespan of animals ([2]; single i.p., doses from 1/8 MPD to MPD, control animals all die by day 11): up to 16 days
toxicity class from acute toxicity study (BDF1 mice; single i.p.): highly toxic
Body Weight (BDF1 mice; single i.p. 5 mg/kg, 0 Day, control 21.55 ± 0.28): 21.88 ± 0.45 g
Body Weight (BDF1 mice; single i.p. 5 mg/kg, 1 Day, control 21.43 ± 0.56): 21.59 ± 0.55 g
Body Weight (BDF1 mice; single i.p. 5 mg/kg, 2 Days, control 21.67 ± 0.77): 21.64 ± 0.71 g
Body Weight (BDF1 mice; single i.p. 5 mg/kg, 3 Days, control 21.99 ± 0.79): 21.72 ± 0.79 g
Body Weight (BDF1 mice; single i.p. 5 mg/kg, 7 Days, control 22.80 ± 0.44): 22.12 ± 0.75 g
Body Weight (BDF1 mice; single i.p. 5 mg/kg, 14 Days, control 23.96 ± 0.68): 23.19 ± 1.21 g
Body Weight (BDF1 mice; single i.p. 10 mg/kg, 0 Day, control 21.55 ± 0.28): 21.99 ± 0.21 g
Body Weight (BDF1 mice; single i.p. 10 mg/kg, 1 Day, control 21.43 ± 0.56): 21.54 ± 0.41 g
Body Weight (BDF1 mice; single i.p. 10 mg/kg, 2 Days, control 21.67 ± 0.77): 21.60 ± 0.52 g
Body Weight (BDF1 mice; single i.p. 10 mg/kg, 3 Days, control 21.99 ± 0.79): 21.86 ± 0.66 g
Body Weight (BDF1 mice; single i.p. 10 mg/kg, 7 Days, control 22.80 ± 0.44): 22.84 ± 1.06 g
Body Weight (BDF1 mice; single i.p. 10 mg/kg, 14 Days, control 23.96 ± 0.68): 23.70 ± 1.12 g
Body Weight (BDF1 mice; single i.p. 15 mg/kg, 0 Day, control 21.55 ± 0.28): 21.86 ± 0.57 g
Body Weight (BDF1 mice; single i.p. 15 mg/kg, 1 Day, control 21.43 ± 0.56): 21.36 ± 2.51 g
Body Weight (BDF1 mice; single i.p. 15 mg/kg, 2 Days, control 21.67 ± 0.77): 21.60 ± 2.43 g
Body Weight (BDF1 mice; single i.p. 15 mg/kg, 3 Days, control 21.99 ± 0.79): 22.11 ± 3.03 g
Body Weight (BDF1 mice; single i.p. 15 mg/kg, 7 Days, control 22.80 ± 0.44): 22.41 ± 2.74 g
Body Weight (BDF1 mice; single i.p. 15 mg/kg, 14 Days, control 23.96 ± 0.68): 23.15 ± 2.14 g
Body Weight (BDF1 mice; single i.p. 20 mg/kg, 0 Day, control 21.55 ± 0.28): 22.37 ± 0.80 g
Body Weight (BDF1 mice; single i.p. 20 mg/kg, 1 Day, control 21.43 ± 0.56): 21.99 ± 3.09 g
Body Weight (BDF1 mice; single i.p. 20 mg/kg, 2 Days, control 21.67 ± 0.77): 21.77 ± 3.79 g
Body Weight (BDF1 mice; single i.p. 20 mg/kg, 3 Days, control 21.99 ± 0.79): 21.85 ± 3.18 g
Body Weight (BDF1 mice; single i.p. 20 mg/kg, 7 Days, control 22.80 ± 0.44): 22.81 ± 3.89 g
Body Weight (BDF1 mice; single i.p. 20 mg/kg, 14 Days, control 23.96 ± 0.68): 23.41 ± 3.01 g
Body Weight (BDF1 mice; single i.p. 25 mg/kg, 0 Day, control 21.55 ± 0.28): 21.87 ± 0.74 g
time after administration at which death of animals began (BDF1 mice; single i.p., doses of 10–25 mg/kg): 5 to 30 min
LD100 (BDF1 mice; single intraperitoneal administration, doses given in mg/kg): 25
LD16 (BDF1 mice; [4]): 9.4
LD84 (BDF1 mice; [4]): 20.3
MTD at 14 days ([3]; doses given in mg/kg): 5 mg/kg
LD50 at 14 days ([3]; probit analysis): 13.8 ± 1.73 mg/kg
germination energy (rice seeds; 10 mmol): 38%
laboratory germination (rice seeds; 10 mmol): 47.6%
germination energy (rice seeds; 20 mmol): 71.4%
laboratory germination (rice seeds; 20 mmol): 100%
sowing qualities of seeds compared with control (rice seeds; 40 mmol): at the control level
germination energy (rice seeds; 40 mmol): 76.1%
laboratory germination (rice seeds; 40 mmol): 95.2%
germination energy (barley seeds; 10 mmol): 52.3%
laboratory germination (barley seeds; 10 mmol): 52.3%
sowing qualities of seeds compared with control (barley seeds; 20 mmol): higher than control
germination energy (barley seeds; 20 mmol): 100%
laboratory germination (barley seeds; 20 mmol): 100%
sowing qualities of seeds compared with control (barley seeds; 40 mmol): higher than control
germination energy (barley seeds; 40 mmol): 100%
laboratory germination (barley seeds; 40 mmol): 100%

Reference: publication PMC9739695, “Water-Soluble Salts Based on Benzofuroxan Derivatives—Synthesis and Biological Activity” (International Journal of Molecular Sciences, 2022)
